Measurements taken from patent publication US12029715B2, “Precursor compounds for providing retinoids of the vitamin A5 pathway and uses thereof” (UNIVERSITY OF DEBRECEN, priority 2015, dated 2024).
“Also recorded” adds a separate entry of the source.

Key:
[1] = tested on: human oligodendrocytes cell cultures; experiment: Metabolic conversion in human oligodendrocytes cell culture (HPLC-MS); format: in vitro ADME; conditions: 10^−6M, n=3
Method: (§1) In a slight variant of the method, after reaching confluency of 80% cells were treated with 9CDHROL, 9CDH-retinyl ester (acetate, 9CDHROL-ES), 9CDHRA, 9CDH-retinoyl ester, (ethyl ester, 9CDHRA-ES), ATROL, 9CDHBC, 9CBC and ATBC at a concentration of 10^−6 M or ethanol at corresponding concentration was used as control vehicle treatment. Cells were harvested 18 hours later, centrifuged, weighted, frozen in liquid nitrogen and stored at −80° C. until analyses.
(§2) High performance liquid chromatography mass spectrometry (LC-MS) was carried out as described in Example 4.
9CDHRA levels including standard deviation in human oligodendrocytes cultures were assessed using HPLC-MS analysis after control treatment using ethanol (CTRL), as well as ATROL treatment (ATROL), 9CBC treatments (9CBC), ATBC treatments (ATBC), 9CDHBC treatment (9CDHBC), 9CDHROL treatments (9CDHROL), 9CDHROL-ester treatments (9CDHROL-ES), 9CDHRA treatments (9CDHRA) or 9CDHRA-ester treatments (9CDHRA-ES), each with 10^−6M concentration and n=3 (FIG. 14D).

[2] = Mouse oral supplementation, retinoid levels in serum, brain and liver (LC-MS); format: in vivo; conditions: mice
Method: For metabolic analyses ATROL, 9CDHROL, 9CDHBC and control solutions were prepared as described above. Single per os application of the dose of 40 mg/kg of each substance was used to treat mice in the evening and samples were collected 11 h later in the light protected conditions, weighted, frozen in liquid nitrogen and stored at −80° C. until analyses. Serum was prepared and immediately stored in brown vials at −80° C., till further analysis.
Accordingly, for sample preparation 100 mg of the material (if samples were under 100 mg, water was added up to the used standard weight: 100 mg) or 100 μl serum was diluted with a threefold volume of isopropanol, the tissues were minced by scissors, vortexed for 10 seconds, put in a ultrasonic bath for 5 minutes, shaken for 6 minutes and centrifuged at 13000 rpm in a Heraeus BIOFUGE Fresco at +4° C. […] The dried extracts were resuspended with 30 μl of methanol—MTBE (50-50) and transferred into the autosampler and 10 μl subsequently analysed.
Mouse brain samples were prepared according to the procedure described above. Briefly, after single per os application of the dose of 40 mg/kg of 9CDHROL (or other cited substances) in the evening mice were sacrificed after 11 hours and tissues samples including brain were dissected under light-protection conditions, weighted, frozen in liquid nitrogen and stored at −80° C. until analyses. Serum was prepared and immediately stored in brown vials at −80° C., till further analysis.
For mouse supplementation experiments we treated n=6 mice per os with 40 mg/kg bw 9CDHROL and 11 h after the treatment the mice were killed and blood, brain and liver was taken. After centrifugation of the drawn blood, serum was obtained.

[3] = tested on: oligodendrocytes cell line 158N; experiment: Metabolic conversion in mouse oligodendrocytes cell culture (LC-MS); format: in vitro ADME
Method: Normal immortalized oligodendrocytes cell line 158N was cultured as previously reported (Feutz et al., 2001). Expediently, cells were cultured in supplemented with 5% calf serum (Invitrogen, France). When cells attained 70% of confluency they were treated with 10^−2 M ethanol solution of one of the following compounds: 9CDHROL, 9CDHROL-acetate, 9CDHRA-ethyl ester. 9CDHRA and ethanol as controls, vehicle treatment. 18 h after treatment cells were collected in amber Eppendorf tubes and stored at −80° C. until analyses. Treatments and cell collection were carried out in light limited conditions to avoid photolysis of retinoids.
as §1, §2

[4] = tested on: Rbp1−/−, Rxrγ−/− and WT mice; experiment: Forced swim test after acute treatment; format: in vivo, mouse; conditions: Rbp1−/− mice, acute i.p. treatment 5-6 h before the test
Method: (§3) The forced swim paradigm was carried out between 1 pm and 4 pm in a 3-litre glass beaker half-filled with water at 22-23° C. (the water depth was 17 cm). All mice were tested only once in this task. To this end, each mouse was lowered gently into the water and the time of immobility was scored during a 6-minute testing period. The mouse was judged immobile when it floated in an upright position and made only small movements to keep its head above the water. After 6 min, the mouse was taken out of the water, left to dry under a red light lamp and returned to its home cage. The immobility scores of each animal were used as an index of despair behavior.
(§4) Vehicle treatments consisted of 3% ethanol and 3% DMSO solution in sunflower oil. Treatments were administered by intraperitoneal injections at volume/weight ratio 3 ml/kg between 8-10 am and 5-6 h before the test as previously validated (Wietrzych-Schindler M, 2011).
as §3, with “paradigm (Dalvi and Lucki, 1999)” for “paradigm”, “2-litre” for “3-litre”

Rbp1−/− and Rxrγ−/− mice = experiment: Y-maze spontaneous alternation; format: in vivo, mouse; conditions: 5-6 hours prior to testing
Method: The Y-maze apparatus and the procedure were as previously described (Wietrzych et al., 2005). Briefly, each mouse was placed at the end of one arm and allowed to explore freely the apparatus for 5 min, with the experimenter out of the animal's sight. Spontaneous alternation performance (SAP) was assessed visually by scoring the pattern of entries into each arm and expressed as a percentage of total number of entries, discounting the first two visits. Total entries were scored as an index of ambulatory activity in the Y-maze, but none of tested mice had to be excluded due to low locomotor performance (score below 9 entries).
as §4

[5] = tested on: Rbp1−/−, Rxrγ−/− and WT mice; experiment: Delayed non-match to place (DNMTP) working memory task in the T-maze; format: in vivo, mouse; conditions: ITI of 6 min
Method: Behaviorally naïve groups of mice were tested in the DNMTP (delayed non-match to place) procedure in the T-maze according to a protocol previously described (Wietrzych et al., 2005), with modifications to facilitate pharmacological tests (Wietrzych-Schindler et al., 2011). Spontaneous alternation was evaluated in the Ymaze apparatus according to protocol described in detail below.
Specifically, in the present protocol, animals were first trained for 10 consecutive days with minimal inter-trial intervals (ITI) of about 15 sec, which was necessary to attain the criterion of 90% or more of correct choices during […] consecutive days (days 9-10). After this period ITI was increased semi-randomly by blocks of 3-6 min during 5 consecutive days (days 11-15 indicated) to determine “test ITI” for each animal, which was defined as the shortest ITI at which mice perform at chance level. From day 16 mice were tested using corresponding “test ITI” delays following vehicle injection on the day 16 (to test for the effect of vehicle alone) and following 9CDHROL (40 mg/kg) injection on day 17. Three mice were excluded from testing since their latency to choose the arm during the retention phase exceeded 3 min in more than one trial/day on three consecutive days (exclusion criterion). On the day 18 mice were again injected (IP) with 9CDHROL (40 mg/kg) and 9 hours later sacrificed for chemical analyses. Mice which received vehicle injections on three consecutive days were used as vehicle-treated controls for analyses of 9CDHROL metabolism. An additional group of 3 naïve mice was also injected with 9CDHROL (40 mg/kg) to test for 9CDHROL metabolism following acute treatment.
In this variant, animals were first trained for 9 consecutive days of with minimal inter-trial intervals (ITI) of about 15 sec, which was necessary to attain the criterion of 90% or more of correct choices during three consecutive days (days 7-9). After this period ITI was increased semi-randomly to 180, 360, 720 and for some WT mice also 1080 seconds so that each animal was tested 6 times with each interval during four consecutive days (days 10-13 indicated). From day 13 mice were tested only twice per week beginning with training session on day one (with minimal, 15 sec ITIs) and testing pharmacological treatments on the second day. Only one pharmacological treatment was tested every 7 days. To test pro-mnemonic activities of UVI2108 and (R)-9CDHRA inventors used a minimal ITI, at which mice performed at chance level (50%) and which was 6 min for the Rbp1−/− or Rxrγ−/− groups and 12 min for most WT mice with exception of two mice tested at 18 min. Four mice (two wild types and one of each knockout line), were excluded from testing since their latency to choose the arm during the retention phase exceeded 3 min in more than one trial/day on three consecutive days (exclusion criterion).
For behavioral analysis, 9CDHROL and 9CDHBC were dissolved in ethanol, and then mixed with sunflower oil, so that the final solution contained 3% ethanol. Vehicle treatments consisted of 3% ethanol solution in sunflower oil. For memory studies treatments with 9CDHRA were administered by intraperitoneal injections at volume/weight ratio 3 ml/kg at 7 am and 7 hours before the beginning of testing. For tests with animal model of chronic social defeat, different treatments were administered by intraperitoneal injections at volume/weight ratio 3 ml/kg at 10 mg/kg for each substance between 5-6 pm every second day of stress protocol immediately after the stress session starting from day 1 of the stress protocol.
as §4

[6] = per os 40 mg/kg, 11 h after treatment

| Structure (SMILES) | 9CDHRA levels in cells after treatment (metabolism / accumulation) [1] | ATROL levels in mouse organs after treatment ([2]; oral gavage 40 mg/kg) | 9CDHRA levels in serum, brain and liver after treatment (conversion to 9CDHRA) [2, 6] | 9CDHROL levels in serum, brain and liver after treatment [2, 6] | ATROL levels in cells after treatment ([3]; 10^−6M) | 9CDHROL levels in cells after treatment ([3]; 10^−6 M, 18 hours) | conversion to 9CDHRA ([3]; data not shown) | immobility (despair) in the forced swim test [4] | working memory in spontaneous alternation in the Y-maze (Rbp1−/− and Rxrγ−/− mice; Rbp1−/− mice, ATRA 5 mg/kg, UVI2108 1 mg/kg, MA 5 mg/kg, DHA 1 mg/kg, TTNPB 5 mg/kg) | working memory in spontaneous alternation in the Y-maze (Rbp1−/− and Rxrγ−/− mice; Rxrγ−/− mice, same doses) | working memory performance in DNMTP task ([5]; Rbp1−/− mice, acute treatment, (R)-9CDHRA 1 or 2 mg/kg) | working memory performance in DNMTP task ([5]; Rxrγ−/− mice) |
| --- | --- | --- | --- | --- | --- | --- | --- | --- | --- | --- | --- | --- |
| CC1=C(/C=C/C(C)=C/C=C/C(C)=C/CO)C(C)(C)CCC1 [ATROL, all-trans-retinol, reference compound] | not converted to 9CDHRA | strongly and significantly increased ATROL levels | significantly increased levels in brain and liver | did not increase | strongly and significantly increased ATROL levels | no or just a weak increase; also recorded: weak significant increase | not converted to 9CDHRA | – | – | – | – | – |
| CC1=C(/C=C/C(C)=C/C=C/C(C)=C/C(=O)O)C(C)(C)CCC1 [ATRA, all-trans-retinoic acid] | – | – | – | – | – | – | – | reduced significantly immobility time | normalised; also recorded: pro-mnemonic effects | not | reversed memory deficits | remained ineffective |
